Test results as given in BindingDB's records for patent US20250230171 (Moma Therapeutics, 2025).

Target: T1, DNA polymerase theta (POLQ) (2-894)
T1 construct: 2-894
Assay: ATPase Assay
Method: POLθ-mediated ATP hydrolysis was measured using the ADP-Glo Kinase Assay (Promega Corporation, Madison, WI). Reactions were performed in white 384-well small-volume microplates (Greiner Bio-One, Frickenhausen, Germany) using a total volume of 15 μL. The ATPase reaction consisted of 1 nM biotinylated Avi-POLθ[2-894], 5 nM of a 50 nucleotide poly-thymine repeat single-stranded DNA (PolyT(50) ssDNA), and 100 μM ATP in 5 μL of assay buffer (50 mM Tris, pH 7.5, 80 mM KCl, 10 MgCl2, 1 mM DTT, 5% glycerol, 0.01% BSA, 0.01% Tween-20). Inhibition of POLΘATPase activity was determined by preparing 11-point serial dilutions of the test compounds in 100% DMSO, then transferring 30 nL of the compounds into the ATPase reaction using an Echo acoustic liquid handler (Beckman Coulter, Brea, CA). DMSO-treated wells containing either all of the reaction components (1 nM biotinylated Avi-POLθ[2-894], 5 nM PolyT(50) ssDNA, 100 μM ATP) or with assay buffer substituted for the biotinylated Avi-POLθ[2-894](0 nM biotinylated Avi-POLθ[2-894], 5 nM PolyT(50) ssDNA, 100 μM ATP) were used to define the maximum and minimum response in the assay. Following a one-hour incubation at ambient temperature, 5 μL of ADP-Glo Reagent was added to the ATPase reaction, and this mixture was allowed to incubate at ambient temperature for an additional hour. Lastly, 5 μL of Kinase Detection Reagent was added, followed by a third one-hour incubation at ambient temperature. The reagent concentrations listed represent the amounts only in the 5 μL ATPase reaction volume.

COc1cnc(Cl)cc1-c1cc(C)ncc1C(=O)Nc1nc2c(s1)CN(C(=O)C1CCCC(OC(F)(F)F)C1)C2 (racemic) [US20250230171, Compound 485]
IC50: 8 nM

COc1cnc(Cl)cc1-c1cc(C)ncc1C(=O)Nc1nc2c(s1)CN(C(=O)C1CC13CC3)C2 (racemic) [US20250230171, Compound 535]
IC50: 32.5 nM

COc1cnc(Cl)cc1-c1cc(C)ncc1C(=O)Nc1nc2c(s1)CN(C(=O)c1ccc(OC(F)F)nc1)C2 [US20250230171, Compound 32]
IC50: 8 nM

COc1cnc(Cl)cc1-c1cc(C)ncc1C(=O)Nc1nc2c(s1)CN(C(=O)c1ccc(C(F)F)c(Cl)c1)C2 [US20250230171, Compound 381]
IC50: 8 nM

COc1cnc(Cl)cc1-c1cc(C)ncc1C(=O)Nc1nc2c(s1)CN(C(=O)c1ccc(C(F)F)cc1F)C2 [US20250230171, Compound 382]
IC50: 8 nM

COc1cnc(Cl)cc1-c1cc(C)ncc1C(=O)Nc1nc2c(s1)CN(C(=O)c1ccc(C(F)F)nc1OC)C2 [US20250230171, Compound 384]
IC50: 8 nM

COc1cnc(Cl)cc1-c1cc(C)ncc1C(=O)Nc1nc2c(s1)CN(C(=O)c1ncc(C(F)F)cn1)C2 [US20250230171, Compound 400]
IC50: 8 nM

COc1cnc(Cl)cc1-c1cc(C)ncc1C(=O)Nc1nc2c(s1)CN(C(=O)c1ccc(C(F)F)c(F)c1)C2 [US20250230171, Compound 403]
IC50: 8 nM

COc1cnc(Cl)cc1-c1cc(C)ncc1C(=O)Nc1nc2c(s1)CN(C(=O)c1c(Cl)c(C)nn1C)C2 [US20250230171, Compound 408]
IC50: 8 nM

COc1cnc(Cl)cc1-c1cc(C)ncc1C(=O)Nc1nc2c(s1)CN(C(=O)c1ccc(F)c(Cl)n1)C2 [US20250230171, Compound 411]
IC50: 8 nM

COc1cnc(Cl)cc1-c1cc(C)ncc1C(=O)Nc1nc2c(s1)CN(C(=O)c1ncc(C(F)F)cc1OC)C2 [US20250230171, Compound 412]
IC50: 8 nM

COc1cnc(Cl)cc1-c1cc(C)ncc1C(=O)Nc1nc2c(s1)CN(C(=O)c1nc(C(F)F)ccc1OC)C2 [US20250230171, Compound 415]
IC50: 8 nM

COc1cnc(Cl)cc1-c1cc(C)ncc1C(=O)Nc1nc2c(s1)CN(C(=O)c1cnc(C)c(C)n1)C2 [US20250230171, Compound 416]
IC50: 8 nM

COc1cnc(Cl)cc1-c1cc(C)ncc1C(=O)Nc1nc2c(s1)CN(C(=O)C1CC3(CC(C)C3)C1)C2 (stereo not drawn) [US20250230171, Compound 418]
IC50: 8 nM

COc1ccc(C#N)cc1-c1cc(C)ncc1C(=O)Nc1nc2c(s1)CN(C(=O)c1cccc(Cl)c1OC)C2 [US20250230171, Compound 422]
IC50: 8 nM

COc1cnc(Cl)cc1-c1cc(C)ncc1C(=O)Nc1nc2c(s1)CN(C(=O)c1nccc(C(F)(F)F)n1)C2 [US20250230171, Compound 431]
IC50: 8 nM

COc1ccc(C#N)cc1-c1cc(C)ncc1C(=O)Nc1nc2c(s1)CN(C(=O)c1cc(C(F)F)ccc1F)C2 [US20250230171, Compound 433]
IC50: 8 nM

COc1cnc(Cl)cc1-c1cc(C)ncc1C(=O)Nc1nc2c(s1)CN(C(=O)c1nn(C)cc1F)C2 [US20250230171, Compound 435]
IC50: 8 nM

COc1cnc(Cl)cc1-c1cc(C)ncc1C(=O)Nc1nc2c(s1)CN(C(=O)c1cc(Cl)nn1C)C2 [US20250230171, Compound 436]
IC50: 8 nM

COc1cnc(Cl)cc1-c1cc(C)ncc1C(=O)Nc1nc2c(s1)CN(C(=O)c1nccnc1OC)C2 [US20250230171, Compound 437]
IC50: 8 nM

COc1ccc(C#N)cc1-c1cc(C)ncc1C(=O)Nc1nc2c(s1)CN(C(=O)c1ccc(C(F)F)cc1)C2 [US20250230171, Compound 438]
IC50: 8 nM

COc1cnc(C(=O)N2Cc3nc(NC(=O)c4cnc(C)cc4-c4cc(Cl)ncc4OC)sc3C2)c(OC)n1 [US20250230171, Compound 440]
IC50: 8 nM

COc1cnc(Cl)cc1-c1cc(C)ncc1C(=O)Nc1nc2c(s1)CN(C(=O)c1ccnc(C(F)(F)F)n1)C2 [US20250230171, Compound 443]
IC50: 8 nM

COc1cnc(Cl)cc1-c1cc(C)ncc1C(=O)Nc1nc2c(s1)CN(C(=O)c1cnc(C(F)F)c(Cl)c1)C2 [US20250230171, Compound 445]
IC50: 8 nM

COc1cnc(Cl)cc1-c1cc(C)ncc1C(=O)Nc1nc2c(s1)CN(C(=O)c1nc(Cl)ccc1C)C2 [US20250230171, Compound 450]
IC50: 8 nM

COc1cnc(Cl)cc1-c1cc(C)ncc1C(=O)Nc1nc2c(s1)CN(C(=O)c1ccc(C(F)F)nn1)C2 [US20250230171, Compound 454]
IC50: 8 nM

COc1cnc(Cl)cc1-c1cc(C)ncc1C(=O)Nc1nc2c(s1)CN(C(=O)c1cccc3nccn13)C2 [US20250230171, Compound 455]
IC50: 8 nM

COc1cnc(Cl)cc1-c1cc(C)ncc1C(=O)Nc1nc2c(s1)CN(C(=O)C1CC3(CC(OC(F)F)C3)C1)C2 (stereo not drawn) [US20250230171, Compound 456]
IC50: 8 nM

COc1cnc(Cl)cc1-c1cc(C)ncc1C(=O)Nc1nc2c(s1)CN(C(=O)c1nn(C)cc1N)C2 [US20250230171, Compound 458]
IC50: 8 nM

COc1cnc(Cl)cc1-c1cc(C)ncc1C(=O)Nc1nc2c(s1)CN(C(=O)c1ncccc1Cl)C2 [US20250230171, Compound 459]
IC50: 8 nM

COc1cnc(Cl)cc1-c1cc(C)ncc1C(=O)Nc1nc2c(s1)CN(C(=O)c1cccn3cncc13)C2 [US20250230171, Compound 462]
IC50: 8 nM

COc1cnc(Cl)cc1-c1cc(C)ncc1C(=O)Nc1nc2c(s1)CN(C(=O)c1cnc(C(F)F)cc1C)C2 [US20250230171, Compound 466]
IC50: 8 nM

COc1cc(Cl)ccc1C(=O)N1Cc2nc(NC(=O)c3cnc(C)cc3-c3cc(C#N)ccc3OC)sc2C1 [US20250230171, Compound 467]
IC50: 8 nM

COc1ccc2oc(C(=O)N3Cc4nc(NC(=O)c5cnc(C)cc5-c5cc(Cl)ncc5OC)sc4C3)nc2c1 [US20250230171, Compound 472]
IC50: 8 nM

COc1cnc(Cl)cc1-c1cc(C)ncc1C(=O)Nc1nc2c(s1)CN(C(=O)C1CC3(CC(F)C3)C1)C2 (stereo not drawn) [US20250230171, Compound 473]
IC50: 8 nM

COc1cnc(Cl)cc1-c1cc(C)ncc1C(=O)Nc1nc2c(s1)CN(C(=O)c1c(C)ncn1C)C2 [US20250230171, Compound 476]
IC50: 8 nM

COc1cnc(Cl)cc1-c1cc(C)ncc1C(=O)Nc1nc2c(s1)CN(C(=O)c1cnc(C(F)(F)F)nc1C)C2 [US20250230171, Compound 477]
IC50: 8 nM

COc1cnc(Cl)cc1-c1cc(C)ncc1C(=O)Nc1nc2c(s1)CN(C(=O)c1nc(C)ncc1Cl)C2 [US20250230171, Compound 479]
IC50: 8 nM

COc1ncc(Cl)c(C(=O)N2Cc3nc(NC(=O)c4cnc(C)cc4-c4cc(Cl)ncc4OC)sc3C2)n1 [US20250230171, Compound 481]
IC50: 8 nM

COc1cnc(Cl)cc1-c1cc(C)ncc1C(=O)Nc1nc2c(s1)CN(C(=O)c1cc(Cl)cnc1OC)C2 [US20250230171, Compound 486]
IC50: 8 nM

COc1cnc(Cl)cc1-c1cc(C)ncc1C(=O)Nc1nc2c(s1)CN(C(=O)c1nc(C)ncc1OC)C2 [US20250230171, Compound 493]
IC50: 8 nM

COc1cnc(Cl)cc1-c1cc(C)ncc1C(=O)Nc1nc2c(s1)CN(C(=O)c1cccc(C)n1)C2 [US20250230171, Compound 497]
IC50: 8 nM

COc1cnc(Cl)cc1-c1cc(C)ncc1C(=O)Nc1nc2c(s1)CN(C(=O)c1nc(C)ccc1Cl)C2 [US20250230171, Compound 498]
IC50: 8 nM

COc1cnc(Cl)cc1-c1cc(C)ncc1C(=O)Nc1nc2c(s1)CN(C(=O)c1ncc(C(C)(F)F)cc1Cl)C2 [US20250230171, Compound 501]
IC50: 8 nM

COc1cnc(Cl)cc1-c1cc(C)ncc1C(=O)Nc1nc2c(s1)CN(C(=O)c1ccc(OC)c3cncn13)C2 [US20250230171, Compound 502]
IC50: 8 nM

COc1ccc(C#N)cc1-c1cc(C)ncc1C(=O)Nc1nc2c(s1)CN(C(=O)c1ccc(OC(F)F)cc1)C2 [US20250230171, Compound 503]
IC50: 8 nM

COc1cnc(Cl)cc1-c1cc(C)ncc1C(=O)Nc1nc2c(s1)CN(C(=O)c1cc(Cl)cc(C)n1)C2 [US20250230171, Compound 505]
IC50: 8 nM

COc1cnc(Cl)cc1-c1cc(C)ncc1C(=O)Nc1nc2c(s1)CN(S(=O)(=O)c1ccccn1)C2 [US20250230171, Compound 507]
IC50: 8 nM

COc1cnc(Cl)cc1-c1cc(C)ncc1C(=O)Nc1nc2c(s1)CN(C(=O)c1cnn(C(F)(F)F)c1)C2 [US20250230171, Compound 513]
IC50: 8 nM

COc1cnc(Cl)cc1-c1cc(C)ncc1C(=O)Nc1nc2c(s1)CN(C(=O)c1ncncc1OC)C2 [US20250230171, Compound 514]
IC50: 8 nM

COc1cnc(Cl)cc1-c1cc(C)ncc1C(=O)Nc1nc2c(s1)CN(C(=O)c1c(C#N)cnn1C)C2 [US20250230171, Compound 515]
IC50: 8 nM

COc1ccc(C(=O)N2Cc3nc(NC(=O)c4cnc(C)cc4-c4cc(C#N)ccc4OC)sc3C2)c(Cl)c1 [US20250230171, Compound 516]
IC50: 8 nM

COc1ccc(C#N)cc1-c1cc(C)ncc1C(=O)Nc1nc2c(s1)CN(C(=O)c1ccc(C(F)F)cc1Cl)C2 [US20250230171, Compound 519]
IC50: 8 nM
